Legend:
Type in all cases: in vivo
[1] = test system: spring wheat (Triticum aestivum L; TRZAS); assay: Postemergence herbicidal safening in cereal crops, greenhouse, visual injury: spring wheat; settings: Triticum aestivum, post-emergence, 480 h, read-out: TRZAS Ob (visual injury)
Experimental: (§1) Evaluation of Postemergence Herbicidal Safening in Cereal Crops
(§2) Seeds of the desired test plant species were planted in Sun Gro MetroMix® 306 planting mixture, which typically has a pH of 6.0 to 6.8 and an organic matter content of about 30 percent, in plastic pots with a surface area of 103.2 square centimeters (cm^2). When required to ensure good germination and healthy plants, a fungicide treatment and/or other chemical or physical treatment was applied. The plants were grown for 7-36 days (d) in a greenhouse with an approximate 14-hour (h) photoperiod which was maintained at about 18° C. during the day and 17° C. during the night. Nutrients and water were added on a regular basis and supplemental lighting was provided with overhead metal halide 1000-Watt lamps as necessary. The plants were employed for testing when they reached the second or third true leaf stage.
(§3) Treatments consisted of the acids or esters of compounds 1-10 and cloquintocet-mexyl (CQC-M), fenchlorazole-ethyl, mefenpyr-diethyl alone and in combination. Weighed amounts of acid or methyl esters of the compounds of formula (I) were dissolved in a volume of 97:3 v/v acetone/dimethylsulfoxide (DMSO) to obtain concentrated solutions. […] The concentrated solutions of the test compound were diluted with the addition of an aqueous mixture containing acetone, water, isopropyl alcohol, DMSO, Agri-Dex crop oil concentrate, and Triton® X-77 surfactant in a 64.7:26.0:6.7:2.0:0.7:0.01 v/v ratio. Test compounds were diluted to the appropriate application rate with a dilution solution which was prepared by mixing the appropriate volume of 97:3 v/v acetone/DMSO and the appropriate volume of an aqueous mixture containing acetone, water, isopropyl alcohol, DMSO, Agri-Dex crop oil concentrate, and Triton® X-77 surfactant in a 64.7:26.0:6.7:2.0:0.7:0.01 v/v ratio. Compound requirements are based upon a 12 mL application volume at a rate of 187 liters per hectare (L/ha). The concentrated solutions of the safener were prepared following the same procedure. Weighed amounts of safener were dissolved in a volume of 97:3 v/v acetone/DMSO to obtain concentrated safener solutions.
(§4) Spray solutions of the herbicide safener and test compound mixtures were prepared by adding the concentrated solutions to the appropriate amount of dilution solution to form 12 mL spray solution with active ingredients in combinations.
(§5) Formulated compounds were applied to the plant material with an overhead Mandel track sprayer equipped with 8002E nozzles calibrated to deliver 187 L/ha over an application area of 0.503 square meters (m^2) at a spray height of 18 inches (43 centimeters (cm)) above average plant canopy. Control plants were sprayed in the same manner with the solvent blank.
(§6) The treated plants and control plants were placed in a greenhouse as described above and watered by sub-irrigation to prevent wash-off of the test compounds. After 20-22 d, the condition of the test plants as compared with that of the control plants was determined visually and scored on a scale of 0 to 100 percent where 0 corresponds to no injury and 100 corresponds to complete kill.
(§7) Colby's equation was used to determine the herbicidal effects expected from the mixtures (Colby, S. R. Calculation of the synergistic and antagonistic response of herbicide combinations. Weeds 1967, 15, 20-22.).
(§8) The following equation was used to calculate the expected activity of mixtures containing two active ingredients, A and B: Expected=A+B−(A×B/100)
(§9) A=observed efficacy of active ingredient A at the same concentration as used in the mixture.
(§10) B=observed efficacy of active ingredient B at the same concentration as used in the mixture.

[2] = test system: spring barley (Hordeum vulgare L; HORVS); assay: Postemergence herbicidal safening in cereal crops, greenhouse, visual injury: spring barley; settings: Hordeum vulgare, post-emergence, 480 h, read-out: HORVS Ob (visual injury)
Experimental: as §1, §2, §3, §4, §5, §6, §7, §8, §9, §10

[3] = test system: winter wheat (Triticum aestivum L; TRZAW); assay: Postemergence herbicidal safening in cereal crops, greenhouse, visual injury: winter wheat; settings: herbicide alone 8.75 g/ha; 20-22 d
Experimental: as §1, §2, §3, §4, §5, §6, §7, §8, §9, §10

[4] = test system: winter barley (Hordeum vulgare L; HORVW); assay: Postemergence herbicidal safening in cereal crops, greenhouse, visual injury: winter barley; settings: herbicide alone 8.75 g/ha; 20-22 d
Experimental: as §1, §2, §3, §4, §5, §6, §7, §8, §9, §10

[5] = test system: durum wheat (Triticum durum L; TRZDU); assay: Postemergence herbicidal safening in cereal crops, greenhouse, visual injury: durum wheat; settings: herbicide alone 8.75 g/ha; 20-22 d
Experimental: as §1, §2, §3, §4, §5, §6, §7, §8, §9, §10

[6] = test system: lamb's-quarters (Chenopodium album L; CHEAL); assay: Postemergence herbicidal activity, greenhouse, visual injury: lamb's-quarters; settings: 20-22 d
Experimental: as §1, §2, §3
Spray solutions of the herbicide safener and test compound mixtures were prepared by adding the concentrated solutions to the appropriate amount of dilution solution to form 12 mL spray solution with active ingredients in combinations. […]
as §6, with “kill. […]” for “kill.”

[7] = test system: purple deadnettle (Lamium purpureum L; LAMPU); assay: Postemergence herbicidal activity, greenhouse, visual injury: purple deadnettle; settings: Lamium purpureum, post-emergence, 480 h, read-out: LAMPU Ob (visual injury)
Experimental: as §1, §2, §3, §4, §5, §6, §7, §8, §9, §10

[8] = herbicide alone 8.75 g/ha, 20-22 d
[9] = herbicide alone 35 g ae/ha, 20-22 d

| SMILES | pest or weed control at 8.75 g/ha [1, 8] [%] | pest or weed control at 35 g/ha [1, 9] [%] | pest or weed control at 8.75 g/ha [2, 8] [%] | pest or weed control at 35 g/ha [2, 9] [%] | TRZAW Ob (visual injury) [3] [%] | HORVW Ob (visual injury) [4] [%] | TRZDU Ob (visual injury) [5] [%] | CHEAL Ob (visual injury) ([6]; herbicide alone 35 g ae/ha) [%] | pest or weed control at 140 g/ha [1] [%] | pest or weed control at 140 g/ha [2] [%] | pest or weed control at 140 g/ha [7] [%] | CHEAL Ob (visual injury) ([6]; safener alone 140 g ae/ha) [%] |
| --- | --- | --- | --- | --- | --- | --- | --- | --- | --- | --- | --- | --- |
| COc1c(N)nc(-c2ccc(C(F)(F)F)cc2)nc1C(=O)O [Compound 3, 6-amino-2-(4-trifluoromethylphenyl)-5-methoxypyrimidine-4-carboxylic acid] | 15 | 75 | 13 | 50 | 17 | 8 | 7 | 10 |  |  |  |  |
| CCOC(=O)C1=NN(c2ccc(Cl)cc2Cl)C(C)(C(=O)OCC)C1 (stereo not drawn) [Mefenpyr-diethyl, mefenpyr-diethyl, reference compound] |  |  |  |  |  |  |  |  | 0 | 0 | 0 | 0 |
